The test system of series [1] is influenza virus. The conditions noted are these: in vitro; cited from earlier work.
Series [2] concerns influenza virus. The conditions noted are these: in vivo; cited from earlier work.
For series [3], the system named is A/Brisbane/10/2007 (H3N2). Format: cell-based, influenza.
Series [4] has as its system A/California/04/2009 (H1N1). The series is classed as cell-based, influenza.
The test system of a further series is A/Anhui/01/2013 (H7N9). Format: cell-based, influenza. The note with it: A549 cells, 10 μM for 1 hour before infection, 1 MOI H7N9, 24 hours post infection, titrated on MDCK cells.

Turning to `O=C(NCCN1CCC2(CC1)C(=O)NCN2c1cccc(F)c1)c1ccc2ccccc2c1` [compound 3], in the series with influenza virus [1], the viral entry entry is “delayed viral entry” and the viral titers entry is “reduced viral titers”. Moreover, in the series with influenza virus [2], the survival entry is “increased survival” and the viral titer entry was “reduced viral titer”. Moreover, the “viral reproduction (TCID50)” value in series [3] is recorded as “significantly lowered viral reproduction”. In addition, in series [4], the “viral reproduction (TCID50)” value is “significantly lowered viral reproduction”. Further, the “viral reproduction (TCID50)” value in the series on A/Anhui/01/2013 (H7N9) is on record as “significantly lowered viral reproduction”. In addition, the “cellular toxicity in microscopic image” value in the series with A549 cells is “significant cellular toxicity”.

These data come from paper PMC4535312 (ChemMedChem, 2014).
